# Source: article PMC5972026 (Journal of medicinal chemistry, 2017)
# “Also recorded” adds a separate entry of the source. Structures can show the parent of a compound that is named as a salt.
# Tests used:
# A/M2 V27A mutant channel [1] = molecular target: T1, A/M2 V27A mutant channel (Influenza A virus, UniProt P0DOF5, V27A); details: cited from earlier work
# A/M2 S31N mutant channel = details: cited from earlier work
# A/M2 V27A mutant channel [2] = molecular target: T1, A/M2 V27A mutant channel; type: cell-based
# [3] = tested on: A/WSN/33 virus (H1N1 subtype), N31S/V27A M2; type: cell-based, influenza A virus
smiles,measurement,setting,value
"NC12CC3CC(CC(C3)C1)C2 [Amantadine, 1-aminoadamantane]",Activity against the V27A mutant,A/M2 V27A mutant channel [1],totally inactive
same,IC50,A/M2 S31N mutant channel,200 µM
same,Inhibition by 100 μM for 2 min (%),A/M2 V27A mutant channel [2],8.9 ± 1.0%
"C1CC(C23CC4CC(CC(C4)C2)C3)CCN1 [Compound 2, 4-(1-adamantyl)piperidine hydrochloride]",Antiviral activity in 46-h PRA,[3],weak activity; also recorded: minimal antiviral activity
same,Binding behaviour,A/M2 V27A mutant channel [2],fast and weak
"C1CC(C2C3CC4CC(C3)CC2C4)CCN1 (stereo not drawn) [Compound 3, 4-(Adamantan-2-yl)piperidine hydrochloride]",Antiviral activity in 46-h PRA,[3],inactive
"N=C(N)N1CCC(C23CC4CC(CC(C4)C2)C3)CC1 [Compound 7, N-amidyl-4-(1-adamantyl)piperidine hydrochloride]",Antiviral activity in 46-h PRA,[3],inactive
same,Binding behaviour,A/M2 V27A mutant channel [2],fast and weak binder
"C1CCC(C23CC4CC(CC(C4)C2)C3)NC1 (stereo not drawn) [Compound 8, 2-(1-adamantyl)piperidine hydrochloride]",Antiviral activity in 46-h PRA,[3],inactive
same,Binding behaviour,A/M2 V27A mutant channel [2],no remarkable binding at all
same,Time after which inhibition is at steady-state,A/M2 V27A mutant channel [2],≤ 1 min
"N=C(N)N1CCC(C=C2C3CC4CC(C3)CC2C4)CC1 [Compound 19, 4-[(adamantan-2-ylidene)methyl]piperidine-1-carboximidamide hydrochloride]",Antiviral activity in 46-h PRA,[3],inactive
